89 compounds from a melting point compilation (Tetko et al.; mined from patent text by program, amines drawn as free bases though some values may be those of a salt) can be followed below.

A value given as a limit tells only on which side of the number the result lay.

By melting point is commonly meant the temperature, or range, at which the solid turns liquid. Compound `COc1ccc2c(cccc2[C@H]2CO[C@H](CCCNC(=O)OCC(=O)NC3CC3)OC2)c1` came in with a melting point of 176 °C. Consider `CCOC(=O)Cn1c(=O)sc2cccc(Oc3ccccc3)c21`, for which the melting point was in the range of 96 to 99 °C. Under `CCOC(=O)C(C)Oc1ccc(-c2nc(-c3ccc(OC(C)C(=O)OCC)cc3O)nc(-c3c(C)cc(C)cc3C)n2)c(O)c1` (centres undefined) stands 142 to 147 °C. The figure for `CC(C)(C)c1cc(C=C2SC(=S)NC2=O)cc(C(C)(C)C)c1O` is 260 °C; for `CC12CCC3C(CCC4CC(=O)CC(C)(O)C43C)C1C(O)CC2=O` (centres undefined) it is 227 to 229 °C; for `COc1ccc(Cl)cc1C(=O)NCCc1ccc(Sc2ccccc2)c(S(N)(=O)=O)c1` it is 178 °C. The figure for `CC(C)=CCCC(C)=CCNC(=O)Nc1ccccc1CCc1cc(C(C)(C)C)c(O)c(C(C)(C)C)c1` is 87 to 87.5 °C; for `CCOC(=O)n1nc2cc(Cl)ccc2c1N` it is 163 to 165 °C.

`CCCCNc1cc(CNc2ccccc2)cc(S(N)(=O)=O)c1Oc1ccccc1` displayed a melting point of 142 to 143 °C. Under `N#Cc1ccc(C(N)=O)s1` stands 222 to 223 °C. Turning to `CNC=C1C(=S)C(C)(C)OC1(C)C`, the melting point is 115 to 117 °C. Under `CCCCCCCCC(CCCCCCCC)N1C(=O)c2ccc3c4cccc5cccc(c6ccc(c2c36)C1=O)c54` stands 143 to 144 °C. The figure for `CC(=O)NC(C)(C)Cc1ccc(N(C)C)cc1` is 156 to 157 °C. `CCCCCCCCCCCCCCCCCC(=O)OC1CCN(O)CC1` had a melting point of 75 to 80 °C. With `CC1(C(O)(Cc2ccccc2Cl)Cn2cncn2)CCCCC1` (centres undefined), the melting point stood at 105 °C. Regarding `CCOC(=O)N1N=C(c2ccc(N)cc2)c2cc(Cl)c(Cl)cc2CC1C` (centres undefined), the melting point was in the range of 190 to 192 °C. As for `CC(=O)OC(OC(C)=O)c1cc(Br)c(C(OC(C)=O)OC(C)=O)cc1Br`, the melting point fell in the range of 200 to 210 °C.

Compound `CCCc1nc2c(N)nc3ccccc3c2n1CCC(=O)N1CCOCC1` yielded a melting point of 172 to 173 °C. The figure for `CC(=O)N1c2ccc(O)cc2Sc2cc([N+](=O)[O-])ccc21` is 202 to 205 °C.

`CCCN(CCC)Cc1noc(-c2ncn3c2[C@@H]2CCCN2C(=O)c2c(Cl)cccc2-3)n1`: the melting point is 155 to 158 °C. The compound `Cc1nnc(-c2ccc3scc(-c4ccc(S(C)=O)cc4)c3c2)o1` (centres undefined) showed a melting point of 166 to 167 °C. Under `CCn1cc(Cl)c(=O)[nH]c1=O` stands 217 to 220 °C; under `CCN(CC)N(C(C)=O)c1nc2cc3nc(N)sc3cc2s1`, 203 to 205 °C; under `Cc1cc(C)nc(N(C(=O)Cl)c2cc(Cl)ccc2Cl)n1`, 121 to 123 °C. As to `CNC(=O)n1cnc(C)c1Cl`, the melting point lay within 94.1 to 94.4 °C. Compound `COc1cc(N2C(=O)CCC2=O)ccc1OCCCN1CCN(c2ccccc2)CC1` showed a melting point of 166 to 167 °C. Under `OC1C=CC2COC1O2` (centres undefined) stands 65.6 to 66.4 °C. The figure for `COC(=O)c1ccc(Cn2nc(O)c3[nH]c4cc(Cl)ccc4c(=O)c3c2=O)cc1` is above 290 °C; for `CC(Oc1ccc2nc(N)sc2c1)c1cc(F)cc(F)c1` (centres undefined) it is 132 °C. The compound `CCCN1CC=C(c2ccc(Cl)cc2)C(C(=O)OCc2ccccc2)C1` (centres undefined) returned a melting point of 75 to 76.5 °C. Under `COc1nc(Cl)nc2c1ncn2C1CC(O)C(CO)O1` (centres undefined) stands 141 to 142 °C. In the case of `CC(C)c1cccc(C(C)C)c1NC(=O)[C@H](C)N(C)C(=O)OC(C)(C)C`, the melting point lay within 108 to 110 °C.

Regarding `Fc1ccc(-c2cccc(-c3cn([C@H]4CN5CCC4CC5)nn3)c2)cn1`, the melting point amounted to 164 °C. Turning to `O=C(O)c1cccc(-c2cccc3oc(Cc4cccc(C(F)(F)F)c4)nc23)c1`, the melting point is 165 to 166 °C. The figure for `CS(=O)(=O)N1CCC(Nc2nc(Nc3ccc(F)c(CN4CCOCC4)c3)nc(OCC(F)(F)F)n2)CC1` is 96 to 98 °C; for `Cc1csc(N2C(=O)C(Cc3ccccc3)NC2=S)n1` (centres undefined) it is 169 to 171 °C; for `CC1Cc2c(c3cccnc3n(-c3ccc(Cl)c(Cl)c3)c2=O)O1` (centres undefined) it is 273 to 274 °C.

In turn, `O=C(NCc1ccccc1)c1ccnc(N2CCN(Cc3ccc(F)cc3)C2=O)c1` registered a melting point of 99 to 101 °C.

In the case of `CCCCCCCCCCCCSC(CCC)C(=O)Nc1cc(C)c(O)c(C)c1C` (centres undefined), the melting point was found to be 116 °C. In turn, `COc1ccc2c(c1)-c1c(OC)ccc3c1C(C2=O)N(C)CC3` (centres undefined) had a melting point of 162 to 164 °C.

Consider `O[C@H](CCc1cccnc1)COc1ccc(-c2nnco2)cc1`, for which the melting point was in the range of 130 to 133 °C. Under `N#CC(c1ccc(Cl)c(Cl)c1)c1c(Cl)cc([N+](=O)[O-])cc1Cl` (centres undefined) stands 171 to 172 °C; under `O=C(Nc1nc(-c2ccco2)c(C(=O)C2CCOCC2)s1)c1ccc(CN2CCCCC2)cc1`, 160 to 162 °C; under `COc1ccc(C(=O)Nc2cccc(Cl)c2)cc1NC(=S)Nc1ccc(F)cc1`, 184 to 185 °C. Under `CC(C)(CO)NC1=NS(=O)(=O)c2sc(Cl)cc2N1` stands 224 to 226 °C; under `CCNC(=O)c1cccc2[nH]n(C)c(=O)c12`, 192 to 194 °C. Under `CCOc1cc(OCC)c(C=[N+]([O-])C2CCCCC2)c(OCC)c1` stands 146 °C; under `COc1ccc2cc3c(Br)nn(C(C)C)c3nc2c1`, 130 to 131 °C; under `NC(=S)N1CCN(C=O)CC1`, 118 °C. `COC(=O)C(Oc1cc(-n2c(=O)cc(C(F)(F)F)n(C)c2=O)c(F)cc1Cl)C(=O)OC`: the melting point was 141 °C. `CN(C(=O)c1cnn(C)c1C(=O)Nc1ccn2nc(N3CCOCC3)nc2c1)C1CCCC1` registered a melting point of 222 to 224 °C. The compound `CN(C(=O)OCc1ccccc1)c1ccc([N+](=O)[O-])cc1O` returned a melting point of 192 °C. `Cn1cc(C2=C(c3cn(C)c4ccc([N+](=O)[O-])cc34)C(=O)NC2=O)c2ccccc21` displayed a melting point of 282 to 284 °C. Under `CCCn1c(=O)c2c(N)n(CCCl)nc2n(Cc2ccccc2)c1=O` stands 126 to 128 °C. The compound `CCCCCCc1c(F)cc(C2C=CC(CCCCC)=CC2)cc1F` (centres undefined) returned a melting point of 35 °C.

Regarding `CCOC(=O)C1=CCCC[C@H]1S(=O)(=O)Nc1ccc(F)cc1Cl`, the melting point lay within 47 to 49 °C.

The compound `CN(CCN1CCNC1=O)Cc1cn(-c2ccc(F)cc2)c2ccc(Cl)cc12` had a melting point of 141 to 143 °C. As for `O=c1c2c(Cc3ccccc3[N+](=O)[O-])n[nH]c2c2cccnc2n1-c1cccc(C(F)(F)F)c1`, the melting point lay within 282 to 284 °C.

Consider `CCNc1nc(N)nc(-c2ccccc2)c1-c1ccc(=O)n(C(C)C)n1`, for which the melting point is 208 to 209 °C. The figure for `CSc1sc(C(N)=O)c2c1-c1nn(C)cc1CC2` is 285 to 286 °C. The figure for `Fc1ccc2nc(S)sc2c1` is 224 to 226 °C; for `C=CCOc1ccc2c(C)cc(=O)oc2c1C(=O)C=Cc1ccc(Cl)cc1` it is 153 to 155 °C. The figure for `COCCC(=O)OCC(=O)C1(O)CCC2C3CC(C)C4=CC(=O)C=CC4(C)C3C(O)CC21C` (centres undefined) is 230 °C; for `CC(C)n1nc(C(Cl)C(=O)c2ccc(F)cc2)ccc1=O` (centres undefined) it is 86.5 to 88 °C. `CN(C)C(=O)Oc1ccc(C[C@H](NC(=O)Nc2ccccc2S(=O)(=O)c2ccccc2)C(=O)O)cc1` showed a melting point of 115 °C. Compound `COc1cc2c(Nc3ccc(Cl)cc3F)ncnc2cc1OCCNC(=O)OC(C)(C)C` yielded a melting point of 190 to 191 °C. The figure for `N#Cc1c(Cl)ccc(F)c1Cl` is 69 to 71 °C; for `COc1ccc2c(c1)C(=O)CC1C2C(O)CC2(C)C(O)CCC12` (centres undefined) it is 113 to 114 °C. `O=C(CCC(=O)N(CCO)CCO)c1ccccc1` returned a melting point of 98 °C. The figure for `COC(=O)C1(O)CSC(SC(C)=O)=C1Cl` (centres undefined) is 133 to 135 °C; for `CC(C)(C)C1OCCO1` it is 86 °C; for `Cc1c(C(=O)c2sc(Nc3ccc(S(N)(=O)=O)cc3)nc2N)ncn1C` it is 293 to 294 °C. Compound `CCCCc1nc2cc[nH]c(=O)c2n1Cc1ccc(-c2ccccc2C#N)cc1` yielded a melting point of 165 °C. The figure for `COC(=O)[C@H](Cc1ccc(NC(=O)c2c(Cl)cccc2Cl)cc1)NC(=O)C1(CCNC(C)=O)CCCC1` is 190 to 194 °C; for `Cc1c(F)c(N2CCC(n3ccnn3)CC2)c(F)c2c1c(=O)c(C(=O)O)cn2C1CC1` it is 261 to 263 °C; for `CCN1CCC2(CC1)OC(c1ccccc1)c1ccccc12` (centres undefined) it is 113 to 115 °C. Compound `CN(C)C1=NC2=NC3=C(CN(Cc4ccccc4)CC3=O)CN2N1` returned a melting point of 279 to 281 °C. As for `COC1=C(OC)C(=O)C2=C(CCC(CCO)CC2)C1=O`, the melting point was 63 to 64 °C. The figure for `COc1c(C(=O)c2ccc([N+](=O)[O-])cc2Cl)c(C)nn1C` is 97 to 98 °C. The figure for `CC(C)n1nc(Br)nc1O` is 155 to 157 °C; for `CC1=C(C(=O)OC2CCCC2)C(c2c(F)cccc2Cl)C(C(=O)n2ccnc2)=C(C)N1` (centres undefined) it is 150 °C; for `C=C(C)COc1cc(Cl)ccc1[N+](=O)[O-]` it is 47 to 49 °C. For `O=C1NCCc2ccc(OCCCCN3CCN(c4cccc(Cl)c4Cl)CC3)cc2N1`, the melting point lay within 185 to 186 °C. The figure for `CC(C)(C)NC(=O)C(C)(C)C` is 116 to 118 °C. The figure for `COC(=O)[C@@H]1C[C@H](OC(=O)c2cccnc2)C(=O)[C@H]2[C@@]1(C)CC[C@H]1C(=O)O[C@H](c3ccoc3)C[C@]21C` is 200 to 204 °C; for `Cc1nc2nc(SCc3ccccc3)nn2c(C)c1Cl` it is 164 to 166 °C; for `COCc1c(C(=O)OC(C)C)ncc2[nH]c3ccc(CCc4ccc(Cl)cc4)cc3c12` it is 149 to 151 °C. Under `O=C(c1ccc(Nc2nc(-c3ccccc3)nc3ccccc23)cc1)N1CCN(c2ncc(Cc3ccccc3)cn2)CC1` stands above 250 °C; under `CC(=O)Nc1ccn([C@@H]2CC[C@H](OC(C)=O)[C@@H](OC(C)=O)[C@H]2OC(C)=O)c(=O)n1` (racemic), 226 °C.
